Earlier results in patent US20090162442A1, “MULTI-PHASIC, NANO-STRUCTURED COMPOSITIONS CONTAINING A COMBINATION OF A FIBRATE AND A STATIN” (priority 2007, published 2009).

[1] = American Family Physician, 2002, Vol. 65, No. 6, page 1173

## CC(C)n1c(/C=C/C(O)CC(O)CC(=O)O)c(-c2ccc(F)cc2)c2ccccc21 (centres unmarked) [fluvastatin]
[1]
  absorbed (rate of absorption): 98%
  bioavailable: approximately 24%
  bioavailability under fed conditions (food interaction): decrease

## CC[C@H](C)C(=O)O[C@H]1C[C@@H](C)C=C2C=C[C@H](C)[C@H](CC[C@@H]3C[C@@H](O)CC(=O)O3)[C@H]21 [lovastatin]
[1]
  absorbed (rate of absorption): about 30%

## CC[C@H](C)C(=O)O[C@H]1C[C@H](O)C=C2C=C[C@H](C)[C@H](CC[C@@H](O)C[C@@H](O)CC(=O)O)[C@H]21 [pravastatin]
  bioavailability under fed conditions (food interaction): decrease
